Experimental findings from patent publication US20110319379A1, “Substituted Indazole Amides And Their Use As Glucokinase Activators” (priority 2009, published 2011) are described below.

One test has as its target T1, recombinant human glucokinase (Homo sapiens, UniProt P35557).
T1 construct: Full-length glucokinase (beta cell isoform) was His-tagged at the N-terminus and purified by a Ni column followed by size exclusion chromatography as described above; His tag; made in house; host or cells: E. coli BL21(DE3), vector pBCGK
T1 sequence (P35557 1-465): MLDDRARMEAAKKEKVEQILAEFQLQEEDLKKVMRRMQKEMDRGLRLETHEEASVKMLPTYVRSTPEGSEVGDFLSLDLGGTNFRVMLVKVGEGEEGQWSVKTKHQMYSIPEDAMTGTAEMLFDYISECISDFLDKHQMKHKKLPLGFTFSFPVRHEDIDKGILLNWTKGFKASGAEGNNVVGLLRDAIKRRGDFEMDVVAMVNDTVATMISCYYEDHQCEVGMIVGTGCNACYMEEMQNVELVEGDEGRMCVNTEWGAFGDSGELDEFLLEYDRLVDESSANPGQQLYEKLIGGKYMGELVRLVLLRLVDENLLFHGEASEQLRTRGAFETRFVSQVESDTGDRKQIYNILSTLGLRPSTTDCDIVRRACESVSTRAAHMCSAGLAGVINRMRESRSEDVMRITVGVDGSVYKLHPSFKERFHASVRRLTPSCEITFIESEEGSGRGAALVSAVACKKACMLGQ
Briefly: Assay 2: Evaluating Activator Potency in a Matrix Assay at Multiple Glucose Concentrations. Format: biochemical. The settings on record: Assay 2 matrix assay; 16 glucose concentrations; intrinsic EC50 = concentration affording a 50% reduction in the enzyme's Km (for glucose); read-out: Glucokinase EC50.
`CCn1cc2c(Oc3ccc(S(N)(=O)=O)cc3)cc(C(=O)Nc3ccc(F)cn3)cc2n1` [Example 1CT, 4-[4-(aminosulfonyl)phenoxy]-2-ethyl-N-(5-fluoropyridin-2-yl)-2H-indazole-6-carboxamide]: the EC50 was determined as 1820 nM. On to `CCc1cnc(NC(=O)c2cc(Oc3ccc(S(N)(=O)=O)cc3)c3cn(CC)nc3c2)cn1` [Example 1CU, 4-[4-(aminosulfonyl)phenoxy]-2-ethyl-N-(5-ethylpyrazin-2-yl)-2H-indazole-6-carboxamide], for which the concentration giving a half-maximal response (EC50) worked out at 1370 nM. Turning to `CCn1cc2c(Oc3ccc(S(C)(=N)=O)cc3)cc(C(=O)Nc3ccc(C)cn3)cc2n1` (stereo not drawn) [Example 1CV, 2-ethyl-N-(5-methylpyridin-2-yl)-4-[4-(S-methylsulfonimidoyl)phenoxy]-2H-indazole-6-carboxamide], the EC50 is 715 nM. As to `CCn1cc2c(Oc3ccc(S(C)(=N)=O)cc3)cc(C(=O)Nc3ccn(C)n3)cc2n1` (stereo not drawn) [Example 1CY, 2-ethyl-N-(1-methyl-1H-pyrazol-3-yl)-4-[4-(S-methylsulfonimidoyl)phenoxy]-2H-indazole-6-carboxamide], the concentration giving a half-maximal response (EC50) came out at 2470 nM.

The target in another test is T2, recombinant human glucokinase (beta cell isoform) (Homo sapiens, UniProt P35557).
T2 construct: Full-length glucokinase (beta cell isoform) was His-tagged at the N-terminus; His tag (N); made in house; host or cells: E. coli BL21(DE3), vector pBCGK
T2 sequence (P35557 1-465): T1 sequence (P35557 1-465)
Briefly: Assay 1: Evaluating Activator Potency and Maximum Activation at 5 mM Glucose. It counts as biochemical.
Conditions: not given
The procedure:
Representative compounds of this invention were evaluated in biochemical assays (Assay 1 or Assay 2) to characterize their glucokinase activation properties.
The recombinant human glucokinase protein utilized in both assays was prepared and purified as described below.
BL21(DE3) cells (Invitrogen Corporation, Carlsbad, Calif.) containing pBCGK (C or N H is) vector were grown at 37° C. (in 2XYT) until the OD600 was between 0.6-1.0. Expression was induced by addition of isopropylthiogalactoside to a final concentration of 0.1-0.2 mM to the cells which were then incubated overnight at 23° C. The next day, cells were harvested via centrifugation at 5000 rpm for 15 minutes at 4° C. The cell pellet was stored at −80° C. for future purification.
Beta Cell Glucokinase His-Taq Purification Conditions: A Ni-NTA (Quigan, Germantown, Md.) column (15-50 mL) was used for separation. Two buffers were prepared, 1) a lysis/nickel equilibration and wash buffer and 2) a nickel elution buffer. The lysis/equilibration/wash buffer was prepared as such: 25 mM HEPES buffer at pH 7.5, 250 mM NaCl, 20 mM imidazole, and 14 mM β-mercaptoethanol as final concentrations. The elution buffer was prepared as such: 25 mM HEPES at pH 7.5, 250 mM NaCl, 400 mM imidazole, and 14 mM β-mercaptoethanol as final concentrations. The buffers were each filtered with a 0.22 μm filter prior to use. The cell pellet (1 L culture) was resuspended in 300 mL of the lysis/equilibration buffer. The cells were then lysed (3 times) with a Microfluidics Model 110Y microfluidizer (Microfluidics Corporation, Newton, Mass.). The slurry was centrifuged with a Beckman Coulter Model LE-80K ultracentrifuge (Beckman Coulter, Fullerton, Calif.) at 40,000 rpm for 45 minutes at 4° C. The supernatant was transferred to a chilled flask. A volume of 20 μl was saved for gel analysis. A Pharmacia AKTA (GMI, Inc., Ramsey, Minn.) purification system was used for separation. The prime lines were purged with lysis/equilibration buffer. The Ni-NTA column was equilibrated with 200 mL of the lysis/equilibration buffer at a flow rate of 5 mL/minute. The supernantant was loaded over the column at 4 mL/minute and the flow-through was collected in a flask. The unbound proteins were washed with lysis/equilibration buffer at a flow rate of 5 mL/minute until the ultraviolet reaches baseline. The protein was then eluted from the column with the imidazole elution buffer via imidazole gradient 20 mM to 400 mM over 320 mL. The column was then stripped of any additional protein with 80 mL of the elution buffer. The elution fractions were each 8 mL, for a total yield of 50 samples. Fractions were analyzed by sodium dodecyl sulfate polyacrylamide (SDS-PAGE) and the fractions containing protein of interest were pooled and concentrated to 10 mL using ultrafiltration cell with a 10,000 molecular weight cut-off (MWCO) Millipore membrane (Sigma-Aldrich, St. Louis, Mo.) under nitrogen gas (60 psi). Protein was further purified by size exclusion chromatography (SEC) using a […] (320 mL) (Amersham Pharmacia, Uppsala, Sweden). SEC was equilibrated with 450 mL sizing buffer containing 25 mM HEPES pH 7.0, 50 mM NaCl, and 5 mM dithiothreitol. Concentrated protein was then loaded over SEC and elution with 400 mL sizing buffer was performed overnight at 0.5 mL/minute. The elution fractions were 5 mL each. The fractions were analyzed by SDS-PAGE and protein containing fractions were pooled. Concentration was measured using Bradford Assay/BSA Standard. Purified protein was stored in small aliquots at −80° C.
Assay 1: Evaluating Activator Potency and Maximum Activation at 5 mM Glucose
Full-length glucokinase (beta cell isoform) was His-tagged at the N-terminus and purified by a Ni column followed by size exclusion chromatography as described above. Glucose was obtained from Calbiochem (San Diego, Calif.) and other reagents were purchased from Sigma-Aldrich (St. Louis, Mo.).
In the case of `Cc1cnc(NC(=O)c2cc(Oc3cnc(C(=O)N(C)C)c(F)c3)c3cn(C)nc3c2)cn1` [Example 1AC, 4-{[6-(dimethylcarbamoyl)-5-fluoropyridin-3-yl]oxy}-2-methyl-N-(5-methylpyrazin-2-yl)-2H-indazole-6-carboxamide], the EC50 stood at 1630 nM.

Staying with this test, now noted: Assay 1; 5 mM glucose; NADH depletion at 340 nm, PK/LDH coupled; read-out: Glucokinase EC50.
`Cc1ccc(NC(=O)c2cc(Oc3cnc(C(=O)N4CCCC4)cn3)c3cn(C)nc3c2)nc1` [Example 1A, 2-methyl-N-(5-methylpyridin-2-yl)-4-(5-(pyrrolidine-1-carbonyl)pyrazin-2-yloxy)-2H-indazole-6-carboxamide]: the concentration for a half-maximal effect (EC50) stood at 293 nM. With `CN(C)C(=O)c1ncc(Oc2cc(C(=O)Nc3ccc(Cl)cn3)cc3nn(C)cc23)cn1` [Example 1AA, N-(5-chloropyridin-2-yl)-4-(2-(dimethylcarbamoyl)pyrimidin-5-yloxy)-2-methyl-2H-indazole-6-carboxamide], the EC50 was determined as 863 nM. On the same count and under the same terms, to `CN(C)C(=O)c1ncc(Oc2cc(C(=O)Nc3ccc(C(F)(F)F)cn3)cc3nn(C)cc23)cn1` [Example 1AB, 4-(2-(dimethylcarbamoyl)pyrimidin-5-yloxy)-2-methyl-N-(5-(trifluoromethyl)-pyridin-2-yl)-2H-indazole-6-carboxamide] belongs 1040 nM. As to `CCn1cc2c(Oc3ccc(S(=O)(=O)CC)cc3)cc(C(=O)Nc3ccc(C)cn3)cc2n1` [Example 1AD, 2-ethyl-4-[4-(ethylsulfonyl)phenoxy]-N-(5-methylpyridin-2-yl)-2H-indazole-6-carboxamide], the EC50 stood at 463 nM. As to `CCn1cc2c(Oc3cnc(C(=O)N(C)C)c(F)c3)cc(C(=O)Nc3cnc(C)cn3)cc2n1` [Example 1AE, 4-(6-(dimethylcarbamoyl)-5-fluoropyridin-3-yloxy)-2-ethyl-N-(5-methylpyrazin-2-yl)-2H-indazole-6-carboxamide], the concentration giving a half-maximal response (EC50) stood at 569 nM. As to `Cn1cc2c(Oc3cnc(C(=O)N4CCCC4)cn3)cc(C(=O)Nc3cnccn3)cc2n1` [Example 1B, 2-methyl-N-pyrazin-2-yl-4-{[5-(pyrrolidin-1-ylcarbonyl)pyrazin-2-yl]oxy}-2H-indazole-6-carboxamide], the EC50 came out at 960 nM.

With `Cc1ccc(NC(=O)c2cc(Oc3ccc(C(=O)N4CCCC4)c(F)c3)c3cn(C)nc3c2)nc1` [Example 1C, 4-[3-fluoro-4-(pyrrolidin-1-ylcarbonyl)-phenoxy]-2-methyl-N-(5-methylpyridin-2-yl)-2H-indazole-6-carboxamide], the EC50 is 1490 nM. Consider `Cn1cc2c(Oc3ccc(C(=O)N4CCCC4)c(F)c3)cc(C(=O)Nc3cnccn3)cc2n1` [Example 1D, 4-[3-fluoro-4-(pyrrolidin-1-ylcarbonyl)-phenoxy]-2-methyl-N-pyrazin-2-yl-2H-indazole-6-carboxamide], for which the concentration giving a half-maximal response (EC50) worked out at 735 nM. Regarding `CN(C)C(=O)c1cnc(Oc2cc(C(=O)Nc3cnccn3)cc3nn(C)cc23)cn1` [Example 1E, 4-{[5-(dimethylcarbamoyl)pyrazin-2-yl]oxy}-2-methyl-N-pyrazin-2-yl-2H-indazole-6-carboxamide], the EC50 was 4310 nM. For `Cc1cnc(NC(=O)c2cc(Oc3cnc(C(=O)N(C)C)cn3)c3cn(C)nc3c2)cn1` [Example 1F, 4-{[5-(dimethylcarbamoyl)pyrazin-2-yl]oxy}-2-methyl-N-(5-methylpyrazin-2-yl)-2H-indazole-6-carboxamide], the 50% effective concentration (EC50) came out at 2490 nM. Take `Cc1ccc(NC(=O)c2cc(Oc3cnc(C(=O)N(C)C)cn3)c3cn(C)nc3c2)nc1` [Example 1G, 4-{[5-(dimethylcarbamoyl)pyrazin-2-yl]oxy}-2-methyl-N-(5-methylpyridin-2-yl)-2H-indazole-6-carboxamide]: the half-maximal effective concentration (EC50) amounted to 1550 nM. Regarding `COc1cnc(NC(=O)c2cc(Oc3cnc(C(=O)N(C)C)cn3)c3cn(C)nc3c2)cn1` [Example 1H, 4-{[5-(dimethylcarbamoyl)pyrazin-2-yl]oxy}-N-(5-methoxypyrazin-2-yl)-2-methyl-2H-indazole-6-carboxamide], the EC50 was determined as 2770 nM.

Turning to `Cc1cnc(NC(=O)c2cc(Oc3cnc(C(F)(F)F)cn3)c3cn(C)nc3c2)cn1` [Example 1I, 2-methyl-N-(5-methylpyrazin-2-yl)-4-{[5-(trifluoromethyl)pyrazin-2-yl]oxy}-2H-indazole-6-carboxamide], the half-maximal effective concentration (EC50) was 19400 nM. As to `Cn1ccc(NC(=O)c2cc(Oc3cnc(C(F)(F)F)cn3)c3cn(C)nc3c2)n1` [Example 1J, 2-methyl-N-(1-methyl-1H-pyrazol-3-yl)-4-{[5-(trifluoromethyl)pyrazin-2-yl]oxy}-2H-indazole-6-carboxamide], the EC50 was 22400 nM. For the compound `Cn1cc2c(Oc3cnc(C(F)(F)F)cn3)cc(C(=O)Nc3cnn(C)n3)cc2n1` [Example 1K, 2-methyl-N-(2-methyl-2H-1,2,3-triazol-4-yl)-4-{[5-(trifluoromethyl)pyrazin-2-yl]oxy}-2H-indazole-6-carboxamide], the EC50 was determined as 16100 nM.

`Cc1cnc(NC(=O)c2cc(Oc3ccc(S(C)(=O)=O)cc3)c3cn(C)nc3c2)cn1` [Example 1L, 2-methyl-N-(5-methylpyrazin-2-yl)-4-[4-(methylsulfonyl)phenoxy]-2H-indazole-6-carboxamide]: the EC50 came to 7810 nM.
